Test results from patent US20130084335A1, “IVABRADINE-CONTAINING PHARMACEUTICAL COMPOSITION” (ratiopharm GmbH, priority 2010, published 2013).

Experiments:
[1] = Particle size by laser diffractometry; format: physicochemical
Description: The term “particle size” according to the present invention relates to the maximum diameter of the equivalent product assuming spherical opaque particles showing the same light scattering pattern and the same diffraction as the active substance particles. According to the invention the particle size is determined by means of laser light diffraction. The determination of the size distribution results from the analysis of the diffraction pattern that is obtained if particles are exposed to a monochromatic light beam. The particles refract the light with small particles refracting the light in a greater angle than large particles. The refracted light is measured by a number of photo detectors arranged in different angles. On the other hand, the light spectra of the […] have to be recorded by light-sensitive detectors in greater angles over the laser beam. Large particles result in greater intensity maxima with small angles, small particles to weaker intensity maxima with greater angles. Thus, in the laser light diffraction the pattern resulting from the interaction of the light with the particles is used for the determination of the particle size.
According to the invention the particle size is determined by means of laser diffractometry. For that, a Mastersizer 2000 by Malvern Instruments having the corresponding sample dispersing unit Hydro S is used. The wet measurement (2500 rpm, ultrasound 10-20 min., shading 5 to 20%) takes place in a dispersion of sunflower oil with the particle spacing in the dispersion being about 3-5 times greater than the particle diameter.
Moreover, the Mie theory defines the secondary scattering caused by the refraction of the light on small particles, as in the international rules of the laser diffraction measurement. (ISO 13320)
The determination of the particle size for particles D50 smaller than 5.0 μm is carried out according to the Mie method and for particles D50 greater than 5.0 μm according to the Fraunhofer method.

[2] = Stability at different temperatures and humidities in open or closed containers (polymorphic form); format: physicochemical; details: for Stability, summary in words: various conditions, phase transition in particular in open containers
Description: XRD samples were analysed on a Bruker-AXS D8 Advance powder X-Ray diffractometer. The measurement conditions were as follows: • Measurement in Bragg-Brentano-Geometry on vertical goniometer (reflection, theta/theta, 435 mm measurement circle diameter) • with sample rotation (30 rpm) on 9 position sample stage • Radiation: Cu Kα1 (1.5406 Å), Tube (Siemens FLCu2K), power 40 kV/40 mA • Detector: position sensitive detector VANTEC-1 • 3° capture angle (2theta), • Anti scatter slit 6.17 mm • Detector slit 10.39 mm • 4° soller slit, • primary beam stop (<2° 2theta) • Monochromator: None • Second β filter: Ni filter 0.1 mm (0.5%) • Start angle: 2° • End Angle: 55° • Measurement time: 11 min • Step: 0.016° 2Theta • Software: EVA (Bruker-AXS, Karlsruhe).
The stability of ivabradine adipate in comparison to ivabradine hydrochloride form I was investigated at different temperatures and humidities in open or closed containers for different storage times.

Particle size D50 [1] [μm]	Particle size D90 [1] [μm]	Stability (crystal form after storage) ([2]; 25° C./60%, closed, 33 d)	Stability (crystal form after storage) ([2]; 25° C./60%, open, 33 d)	Stability (crystal form after storage) ([2]; 30° C./65%, closed, 33 d)	Stability (crystal form after storage) ([2]; 30° C./65%, open, 33 d)	Stability (crystal form after storage) ([2]; 40° C./75%, closed, 33 d)	Stability (crystal form after storage) ([2]; 40° C./75%, open, 33 d)	Stability (crystal form after storage) ([2]; 25° C./60%, closed, 57 d)	Stability (crystal form after storage) ([2]; 25° C./60%, open, 57 d)	Stability (crystal form after storage) ([2]; 30° C./65%, closed, 57 d)	Stability (crystal form after storage) ([2]; 30° C./65%, open, 57 d)	Stability (crystal form after storage) ([2]; 40° C./75%, closed, 57 d)	Stability (crystal form after storage) ([2]; 40° C./75%, open, 57 d)	SMILES	Stability, summary in words [2]
19.10	44.11	unchanged	β +	unchanged	β	unchanged	β							COc1cc2c(cc1OC)CC(=O)N(CCCN(C)C[C@H]1Cc3cc(OC)c(OC)cc31)CC2.Cl [Ivabradine HCl form I]	undergoes phase transition into ivabradine HCl, form beta, or form d
18.35	52.71							unchanged	unchanged	unchanged	unchanged	unchanged	unchanged	COc1cc2c(cc1OC)CC(=O)N(CCCN(C)C[C@H]1Cc3cc(OC)c(OC)cc31)CC2.O=C(O)CCCCC(=O)O [Ivabradine adipate]	stable at various conditions
